Measurements taken from the supplement of paper PMC11061612.

Assays:
[1] = test system: OCUM-1 (Gastric Carcinoma); experiment: Bliss excess, mean over the matrix (fraction); higher = more synergy
Method in brief: (§1)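 After 24 hours at 37°C and 5% CO2 in 1536-well plates, cells in DMEM/F12 or RPMI plus 10% FBS received two-drug dose matrices for 72 hours. Viability came from CellTiter-Glo 2.0 luminescence and was scaled as inhibition, anchored at 0 by vehicle wells and at 1 by blank wells. Combination Emax is taken as the second-highest inhibition in the matrix, and Bliss excess as the observed combination effect less EA + EB − EA·EB, with EA and EB the single-agent effects.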

[2] = test system: KINGS-1 (Low Grade Glioma); experiment: as above
Method in brief: as §1

[3] = test system: VMRC-LCD (Lung Adenocarcinoma); experiment: as above
Method in brief: as §1

[4] = test system: SCC-9 (Oral Cavity Carcinoma); experiment: as above
Method in brief: as §1

[5] = test system: NB7 (Neuroblastoma); experiment: as above
Method in brief: as §1

[6] = test system: EW-3 (Ewing's Sarcoma); experiment: as above
Method in brief: as §1

[7] = test system: LC4-1 (B-Lymphoblastic Leukemia); experiment: as above
Method in brief: as §1

[8] = test system: H-EMC-SS (Chondrosarcoma); experiment: as above
Method in brief: as §1

[9] = test system: SNU-C1 (Colorectal Carcinoma); experiment: as above
Method in brief: as §1

[10] = test system: TGBC11TKB (Gastric Carcinoma); experiment: as above
Method in brief: as §1

[11] = test system: NCI-N87 (Gastric Carcinoma); experiment: as above
Method in brief: as §1

[12] = test system: OCUB-M (Breast Carcinoma); experiment: as above
Method in brief: as §1

[13] = test system: HSC-2 (Oral Cavity Carcinoma); experiment: as above
Method in brief: as §1

[14] = test system: JHH-7 (Hepatocellular Carcinoma); experiment: as above
Method in brief: as §1

[15] = test system: GI-1 (Glioblastoma); experiment: as above
Method in brief: as §1

[16] = test system: OCUM-1 (Gastric Carcinoma); experiment: combination Emax (second highest fraction inhibited in the dose matrix, 72 h); higher = more inhibition; extreme values may be limits of the assay
Method in brief: as §1

[17] = test system: KINGS-1 (Low Grade Glioma); experiment: as above
Method in brief: as §1

[18] = test system: VMRC-LCD (Lung Adenocarcinoma); experiment: as above
Method in brief: as §1

[19] = test system: SCC-9 (Oral Cavity Carcinoma); experiment: as above
Method in brief: as §1

[20] = test system: NB7 (Neuroblastoma); experiment: as above
Method in brief: as §1

[21] = test system: EW-3 (Ewing's Sarcoma); experiment: as above
Method in brief: as §1

[22] = test system: LC4-1 (B-Lymphoblastic Leukemia); experiment: as above
Method in brief: as §1

[23] = test system: H-EMC-SS (Chondrosarcoma); experiment: as above
Method in brief: as §1

[24] = test system: SNU-C1 (Colorectal Carcinoma); experiment: as above
Method in brief: as §1

[25] = test system: TGBC11TKB (Gastric Carcinoma); experiment: as above
Method in brief: as §1

[26] = test system: NCI-N87 (Gastric Carcinoma); experiment: as above
Method in brief: as §1

[27] = test system: OCUB-M (Breast Carcinoma); experiment: as above
Method in brief: as §1

[28] = test system: HSC-2 (Oral Cavity Carcinoma); experiment: as above
Method in brief: as §1

[29] = test system: JHH-7 (Hepatocellular Carcinoma); experiment: as above
Method in brief: as §1

[30] = test system: GI-1 (Glioblastoma); experiment: as above
Method in brief: as §1
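Throughout, for Bliss excess, mean over the matrix: after 72 h of two-drug dosing.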

SMILES | Bliss excess [1] | Bliss excess [2] | Bliss excess [3] | Bliss excess [4] | Bliss excess [5] | Bliss excess [6] | Bliss excess [7] | Bliss excess [8] | Bliss excess [9] | Bliss excess [10] | Bliss excess [11] | Bliss excess [12] | Bliss excess [13] | Bliss excess [14] | Bliss excess [15] | combination Emax [16] | combination Emax [17] | combination Emax [18] | combination Emax [19] | combination Emax [20] | combination Emax [21] | combination Emax [22] | combination Emax [23] | combination Emax [24] | combination Emax [25] | combination Emax [26] | combination Emax [27] | combination Emax [28] | combination Emax [29] | combination Emax [30]
C[C@@H]1COCCN1c1cc(C2([S@](C)(=N)=O)CC2)nc(-c2ccnc3[nH]ccc23)n1 [AZD6738] + Nc1ccn([C@@H]2O[C@H](CO)[C@@H](O)C2(F)F)c(=O)n1 [Gemcitabine] (first compound max 10 µM, 7x7, partner max 0.3 µM) | -0.0316 | -0.023 | 0.0526 | 0.024 | 0.0831 | -0.0176 | 0.0935 | 0.006 | -0.0261 | -0.0137 | 0.0265 | 0.028 | 0.0604 | 0.085 | 0.0797 | 0.727 | 0.388 | 0.74 | 0.47 | 0.903 | 0.939 | 0.988 | 0.545 | 0.721 | 0.936 | 0.738 | 0.947 | 0.971 | 0.722 | 0.933
Cc1nc(-c2cn3c(n2)-c2ccc(-c4cnn(C(C)(C)C(N)=O)c4)cc2OCC3)n(C(C)C)n1 [Taselisib] + O=C(Nc1ccc2[nH]nc(-c3ccncc3)c2c1)[C@@H]1CCN(CC(=O)N2CCN(c3ccc(-c4ncccn4)cc3)CC2)C1 [SCH772984] (first compound max 10 µM, 7x7, partner max 5 µM) | 0.016 | 0.139 | -0.0342 | 0.151 | -0.0014 | 0.0884 | 0.0661 | 0.156 | 0.108 | 0.177 | 0.0215 | 0.0341 | 0.0341 | 0.0389 | 0.111 | 0.983 | 0.749 | 0.149 | 0.959 | 0.264 | 0.608 | 0.588 | 0.927 | 0.932 | 0.765 | 0.947 | 1 | 0.994 | 0.526 | 0.732
O=C(c1cc(Cc2n[nH]c(=O)c3ccccc23)ccc1F)N1CCN(C(=O)C2CC2)CC1 [Olaparib] + COc1nnc2ccc(N3CCC(c4ccc(OCCN5CCN(C)C(=O)[C@H]5C)cc4)CC3)nn12 [AZD5153] (first compound max 10 µM, 7x7, partner max 1 µM) | -0.0755 | -0.0773 | -0.0707 | -0.0418 | -0.0339 | -0.0528 | -0.115 | -0.0456 | -0.0531 | -0.0543 | -0.019 | -0.0609 | -0.0679 | -0.0336 | 0.0092 | 0.488 | 0.0844 | 0.35 | 0.288 | 0.359 | 0.842 | 0.899 | 0.218 | 0.524 | 0.284 | 0.528 | 0.384 | 0.563 | 0.237 | 0.738
O=C(c1cc(Cc2n[nH]c(=O)c3ccccc23)ccc1F)N1CCN(C(=O)C2CC2)CC1 [Olaparib] + CC1(C)CCC(CN2CCN(c3ccc(C(=O)NS(=O)(=O)c4ccc(NCC5CCOCC5)c([N+](=O)[O-])c4)c(Oc4cnc5[nH]ccc5c4)c3)CC2)=C(c2ccc(Cl)cc2)C1 [Venetoclax] (first compound max 10 µM, 7x7, partner max 1 µM) | -0.0472 | -0.0359 | -0.0266 | -0.047 | -0.0285 | 0.0351 | 0.0096 | -0.0572 | -0.0425 | -0.0224 | -0.0552 | -0.0483 | -0.0219 | -0.032 | 0.0518 | 0.172 | 0.131 | 0.151 | 0.0718 | 0.301 | 0.887 | 1 | 0.119 | 0.0848 | 0.183 | 0.121 | 0.17 | 0.115 | 0.173 | 0.265
